Activity calls are given as the source filed them. The calls are words filed in the database; no cut-off is given here.

Series [1] has as its system HepG2. The series can be described thus: Effect on triglyceride biosynthesis in human HepG2 cells at 30 uM. The format is functional, cell-based.
The subject of series [2] is HepG2. Put plainly: Stimulation of triglyceride biosynthesis in human HepG2 cells incubated at 2 uM for 14 hrs followed by sodium [14C]-acetate addition measured after 4 hrs. The class given is functional, cell-based.
The nature of series [3]: Cytotoxicity against human HepG2 cells assessed as cell viability after 48 hrs by MTT assay. The format is cell-based. More on the design: concentration or dose not given beside the values. The following applies: read-out: Activity.
Series [4] concerns HepG2. Put plainly: Effect on sterol biosynthesis in human HepG2 cells at 30 uM. The class given is functional, cell-based.
The subject of series [5] is HepG2. Put plainly: Cytotoxicity against human HepG2 cells assessed as cell viability up to 2 uM after 48 hrs by MTT assay. The class given is cell-based. The following applies: hepg2, 48 h. (In general: Tetrazolium dyes change colour on reduction, which living cells bring about.)
Series [6] relates to HepG2. The series can be described thus: Reduction in cholesterol biosynthesis in human HepG2 cells incubated at 2 uM for 14 hrs followed by sodium [14C]-acetate addition measured after 4 hrs. The format is functional, cell-based.
Series [7] relates to HepG2. The series can be described thus: Reduction in cholesterol biosynthesis in human HepG2 cells incubated at 5 uM for 14 hrs followed by sodium [14C]-acetate addition measured after 4 hrs. The class given is functional, cell-based.
The test system of series [8] is HepG2. The series can be described thus: Stimulation of triglyceride biosynthesis in human HepG2 cells incubated at 5 uM for 14 hrs followed by sodium [14C]-acetate addition measured after 4 hrs. The format is functional, cell-based.

`C[C@H](CCCC(C)(C)O)[C@H]1CC[C@H]2[C@@H]3CC=C4C[C@@H](O)CC[C@]4(C)[C@H]3CC[C@]12C`: the outcome in series [1] and in series [4] was inactive. Moreover, the result in series [2] and in series [6] was Active. For the same molecule, in series [3], the viability at 48 h is more than 70%. Also, in series [5], the Activity entry was “Non-toxic”.
Regarding `CN(C)C(=O)CNC(=O)/C=C1\CC[C@H]2[C@@H]3CC=C4C[C@@H](O)CC[C@]4(C)[C@H]3CC[C@]12C`, the outcome in series [1] and in series [4] was inactive. The outcome in series [7] and in series [8] was Active. Besides, the viability at 48 h in series [3] is more than 70%.
For `CC(C)CCNC(=O)/C=C1\CC[C@H]2[C@@H]3CC=C4C[C@@H](O)CC[C@]4(C)[C@H]3CC[C@]12C`, the outcome in series [1] and in series [4] was inactive. The outcome in series [7] and in series [8] was Active. In series [3], the viability at 48 h is more than 70%.
For the molecule `CC(CO)(CO)NC(=O)/C=C1/CC[C@H]2[C@@H]3CC=C4C[C@@H](O)CC[C@]4(C)[C@H]3CC[C@]12C`, the result in series [1], in series [7], in series [4] and in series [8] was inactive. In series [3], the viability at 48 h was more than 70%.
With `CC(C)(CO)NC(=O)/C=C1\CC[C@H]2[C@@H]3CC=C4C[C@@H](O)CC[C@]4(C)[C@H]3CC[C@]12C`, the outcome in series [1] and in series [4] was inactive. In series [3], the viability at 48 h was more than 70%.
As for `CC(C)CCNC(=O)/C=C1/CC[C@H]2[C@@H]3CC=C4C[C@@H](O)CC[C@]4(C)[C@H]3CC[C@]12C`, the result in series [1], in series [7], in series [4] and in series [8] was inactive. Further, the viability at 48 h in series [3] is more than 70%.
For `C[C@]12CC[C@H](O)CC1=CC[C@@H]1[C@@H]2CC[C@]2(C)/C(=C\C(=O)NC(CO)(CO)CO)CC[C@@H]12`, the outcome in series [1], in series [7], in series [4] and in series [8] was inactive. The viability at 48 h in series [3] is more than 70%.
For the molecule `C[C@]12CC[C@H](O)CC1=CC[C@@H]1[C@@H]2CC[C@]2(C)/C(=C/C(=O)NC(CO)(CO)CO)CC[C@@H]12`, the result in series [1] and in series [4] was inactive. Besides, the viability at 48 h in series [3] was more than 70%.
Consider `C[C@]12CC[C@H](O)CC1=CC[C@@H]1[C@@H]2CC[C@]2(C)/C(=C/C(=O)NCCO)CC[C@@H]12`, for which the result in series [1] and in series [4] was inactive. Moreover, the result in series [7] and in series [8] was Active. The viability at 48 h in series [3] is more than 70%.
Turning to `C[C@]12CC[C@H](O)CC1=CC[C@@H]1[C@@H]2CC[C@]2(C)/C(=C\C(=O)NCCO)CC[C@@H]12`, the outcome in series [1], in series [7], in series [4] and in series [8] was inactive. Further, the viability at 48 h in series [3] was more than 70%.
As for `CC(CO)(CO)NC(=O)/C=C1\CC[C@H]2[C@@H]3CC=C4C[C@@H](O)CC[C@]4(C)[C@H]3CC[C@]12C`, the outcome in series [1] and in series [4] was inactive. Also, in series [3], the viability at 48 h was more than 70%.
Regarding `CC(C)(CO)NC(=O)/C=C1/CC[C@H]2[C@@H]3CC=C4C[C@@H](O)CC[C@]4(C)[C@H]3CC[C@]12C`, the result in series [1], in series [7], in series [4] and in series [8] was inactive. Further, the viability at 48 h in series [3] was more than 70%.
As to `COC(=O)CNC(=O)/C=C1\CC[C@H]2[C@@H]3CC=C4C[C@@H](O)CC[C@]4(C)[C@H]3CC[C@]12C`, the result in series [1], in series [7] and in series [4] was inactive. Besides, in series [3], the viability at 48 h is more than 70%. The result in series [8] was Active.

Values taken from ChEMBL document CHEMBL2346612, “Pregna-5,17(20)-dien-21-oyl amides affecting sterol and triglyceride biosynthesis in Hep G2 cells” (Bioorg Med Chem Lett, 2013).
